Entries after “also recorded” stand apart in the source; their conditions may differ. Read-outs that look alike come from different tables or passages of the source.
Legend:
[1] = Single oral dose pharmacokinetics of APAZA in dogs; format: in vivo, Beagle dogs; conditions: for AUC(0-t) / Cmax / Tmax: Beagle, dog, plasma, single oral dose 1000 mg/kg; for AUC(0-t): read-out: area under the plasma concentration-time curve (AUC0-t); for Cmax: read-out: mean maximum plasma concentration (Cmax); for Tmax: read-out: time to maximum plasma concentration (tmax)
DNBS colitis = test: Study AA-PH-003: oral and rectal APAZA and sulfasalazine in DNBS colitis; format: in vivo, male Lewis rats; set-up: Average Diarrhea Score Day 3: scale not given here; conditions: for Colonic Inflammation Scores: scale 0-2
Protocol: Study AA-PH-003 was designed to evaluate the anti-inflammatory efficacy of oral and rectal doses of APAZATM and sulfasalazine in the DNBS colitis model in rats. […] Thirty-five adult male Lewis rats (body weight 200-250 g) were studied. […] Animal body weights and incidence of diarrhea were recorded daily. […] Animals in the DNBS groups and the parallel deionized water group were sacrificed on day 5. Laparotomies and colectomies were performed and animals were scored for the presence and severity of intestinal adhesions, strictures, inflammation, and ulceration. Colon: body weight ratios were determined and colon histopathology was performed.

DSS induced colitis = test: Dextran sulfate sodium (DSS) colitis in the rat; format: in vivo, Sprague-Dawley rats; conditions: oral gavage bid
Protocol: The effectiveness of APAZA™ and sulfasalazine in ameliorating intestinal inflammation in a model of dextran sulfate sodium (DSS) induced colitis in Sprague-Dawley rats was determined. Thirty-six male Sprague-Dawley rats that were 7-8 weeks old and weighed 240-260 g were studied. […] After completion of the treatment period, rats were euthanized and the efficacy of the test drugs in inhibiting colitis was assessed by the following: • Disease Activity Index Scoring: • Body weight • Colon wet weight: body weight ratios • Colonic Myeloperoxidase (MPO) activity • Histopathological changes of the colon

[2] = test system: Clostridium difficile toxin A-induced colitis; test: Toxin A-induced colitis, chronic oral administration in drinking water for 5 days; format: in vivo, Sprague-Dawley rats; conditions: for potency relative to sulfasalazine for inhibiting toxin A-induced colitis: chronic oral, dose-response studies; for doses that significantly inhibited toxin A-induced colitis: chronically for 5 days in drinking water, doses tested 1-100
Protocol: Eighteen adult male Sprague-Dawley rats weighing 175-222 grams were divided into 3 groups each consisting of 6 animals: • 4-APAA (AA-002) 100 mg/kg orally+Toxin A (10 μg) injected into the lumen of the colon • Vehicle (DW) orally+Toxin A (10 μg) injected into the lumen of the colon • Vehicle (DW) orally
Following 5 days of 4-APAA administration in drinking water, both ketamine (67 mg/kg) and xylazine (33 mg/kg) were administered, an isolated colonic segment was surgically created, and 10 μg of Clostridium difficile toxin A was injected into the lumen of the colon. After 3 hours, the rats were euthanized and colonic inflammation was assessed by quantitating luminal fluid accumulation and myeloperoxidase (MPO) content in the colon tissue. In addition, histological evaluation of the treated colon segments was completed.
Drug Administration. In studies using chronic administration, sulfasalazine, APAZA™, and 4-APAA were administered in the drinking water at doses ranging from 0.1-100 mg/kg·d for 5 days. Sulfasalazine and APAZA™ were initially dissolved in 0.1 N NaOH at 30 times the desired final concentration and then the pH was adjusted to 8.5 with 1 N HCl and the solution was diluted 30-fold with distilled water. 4-APAA was dissolved in water. On the fifth day, the rats were fasted overnight (with access to their drinking water±sulfasalazine, APAZA™, or 4-APAA ad lib), anesthetized, and isolated colonic segments were surgically created as described below. In studies using acute administration, the rats were pretreated by injection of 4-APAA at doses of 10 or 100 μg in 200 μl of PBS (pH 7.4) into the lumen of the colonic segment using a 27 ga syringe needle. Toxin A (10 μg) in 200 μl of PBS (pH 7.4) was tested alone or injected into the lumen of the colonic segment 30 minutes after 4-APAA using a 27 ga syringe needle.
Surgery. Isolated colonic segments were created in male Sprague-Dawley rats (150-175 g) as described previously for isolated ileal segments (see, Gastroenterol. 111: 1272-1280 (1996) and Proc. Natl. Acad. Sci. USA 91: 947-951 (1994). Rats fasted overnight with free access to drinking water were anesthetized by intramuscular injection of 67 mg/kg ketamine:33 mg/kg xylazine. A midline abdominal incision was made and colonic segments 5 cm in length were created by ligation with 4-0 silk sutures, taking care not to disturb the vascular supply. Toxin A (10 μg) in 400 μl of PBS (pH 7.4) was injected into the lumen of the colonic segment using a 27 ga syringe needle. Control rats were prepared similarly and their colonic segments were injected with the vehicles. The midline incision was then closed with a running suture, and the rats were placed on a heating pad at 37° C. for 3 hours. After 3 hours, the rats were euthanized and samples of the treated colonic segments were taken for analysis in vitro.
Histopathology. The severity of colonic histological damage was assessed using formalin-fixed, paraffin-embedded, H&E-stained sections.
Luminal Fluid Accumulation. Luminal fluid accumulation was measured gravimetrically. After 3 hours of treatment, the isolated colonic segments were removed, weighed, and their lengths were measured. Luminal fluid accumulation is expressed as mg wet weight per cm length.
Myeloperoxidase Activity. Myeloperoxidase (MPO) activity was measured as described previously (see, J. Invest. Dermatol. 78: 206-209 (1982)). Briefly, pieces of control and treated colonic segments were homogenized in 0.5% hexadecyltrimethylammonium bromide in 50 mM KH2PO4 (pH 6), freeze/thawed three times, centrifuged at 4° C. for 2 minutes, and then the absorbance of each supernatant was read at 460 nm at 0, 30, and 60 seconds after the addition of 2.9 ml of o-dianisidine dihydrochloride to 0.1 ml supernatant. The maximal change in absorbance per minute was used to calculate the units of MPO activity based on the molar absorbency index of oxidized o-dianisidine of 1.13×10^4 M^−1 cm^−1. […]

[3] = orally + 30 mg DNBS, APAZA 200 mg/kg, sulfasalazine 265.6 mg/kg
[4] = rectally + 30 mg DNBS, APAZA 200 mg/kg, sulfasalazine 265.6 mg/kg
[5] = 0.5 mg/kg·day in drinking water, 5 days
[6] = 1 mg/kg·day in drinking water, 5 days
[7] = 10 mg/kg·day in drinking water, 5 days
[8] = 100 mg/kg·day in drinking water, 5 days
[9] = 100 mg/kg·day in drinking water, 5 days, toxin A 10 μg

## O=C(O)Cc1ccc(/N=N/c2ccc(O)c(C(=O)O)c2)cc1 [APAZA™, 5-(4-carboxymethyl-phenylazo)-2-hydroxy-benzoic acid]
[1]; female dogs
  AUC(0-t): 40800 ng·h/mL
  Cmax: 2640 ng/mL
  Tmax: 24 h
[1]; male dogs
  AUC(0-t): 95400 ng·h/mL
  Cmax: 9780 ng/mL
  Tmax: 15 h
[1]; single oral dose, 100 to 1000 mg/kg
  plasma levels versus dose: increased in a dose-related manner
DNBS colitis; compared to tissues from placebo and sulfasalazine treated animals
  severity of mucosal ulcers: less severe
DNBS colitis; oral groups
  reduction relative to control in net colon: body weight (% BW) ratio: 23.8%
DNBS colitis; [3]
  Average Diarrhea Score Day 3: 2
  Colon Histopathology (# severe lesions): 2
  Length of Colonic Inflammation (cm): 2.5 cm
  Mean Body Weight: 213.8 g
  Mean Colon Length (cm): 12.3 cm
  Net Colon: Body Weight Ratio: 0.2309
  Colonic Inflammation Scores: 1.4
DNBS colitis; [4]
  Average Diarrhea Score Day 3: 2
  Length of Colonic Inflammation (cm): 1.6 cm
  Mean Body Weight: 218.6 g
  Mean Colon Length (cm): 12.4 cm
  Net Colon: Body Weight Ratio: 0.1983
  Colonic Inflammation Scores: 1.3
DSS induced colitis; APAZA 100 mg/kg, sulfasalazine 133 mg/kg
  colon wet weight: body weight ratio, DSS versus DW: no statistically significant difference
DSS induced colitis; rats drinking 5% DSS, APAZA 100 mg/kg, sulfasalazine 133 mg/kg
  Disease Activity Index (DAI) score: 0-1
DSS induced colitis; rats receiving DSS
  colonic MPO activity: similar
  histological changes of the colon: largely protected
[2]; 0.1 mg/kg·day in drinking water, 5 days
  toxin A-induced structural damage of the colon (H&E): little if any protective effect
[2]; [5]
  toxin A-induced luminal fluid accumulation, significance of inhibition: significantly inhibited
  toxin A-induced structural damage of the colon (H&E): partially protected
[2]; [6]
  toxin A-induced MPO activity, significance of inhibition: significantly inhibited
  toxin A-induced luminal fluid accumulation, significance of inhibition: significantly inhibited
  toxin A-induced structural damage of the colon (H&E): strongly protected
[2]; [7]
  toxin A-induced MPO activity, significance of inhibition: significantly inhibited
  toxin A-induced luminal fluid accumulation, significance of inhibition: significantly inhibited
  toxin A-induced structural damage of the colon (H&E): strongly protected
[2]; [8]
  toxin A-induced MPO activity, significance of inhibition: significantly inhibited
  toxin A-induced luminal fluid accumulation, significance of inhibition: significantly inhibited
  toxin A-induced structural damage of the colon (H&E): strongly protected
[2]
  potency relative to sulfasalazine for inhibiting toxin A-induced colitis: 10-20 fold
  doses that significantly inhibited toxin A-induced colitis: 1-100 mg/kg·day
[2]; listed as APAZA™ compound
  potency relative to sulfasalazine for inhibiting toxin A-induced colitis: 10-100 fold

## Nc1ccc(CC(=O)O)cc1 [4-APAA, (4-aminophenyl)-acetic acid]
[2]; [8]
  toxin A-induced MPO activity, significance of inhibition: significantly inhibited
  toxin A-induced luminal fluid accumulation, significance of inhibition: significantly inhibited
  toxin A-induced structural damage of the colon (H&E): protected the structural integrity; also recorded: strongly protected
[2]; [9]
  percent inhibition of toxin A-induced MPO activity: 89±8%
  percent inhibition of toxin A-induced luminal fluid accumulation: 84±6%
[2]
  doses that significantly inhibited toxin A-induced colitis: 100 mg/kg·day
